Data published in patent US10293055B2, “Acetylenedicarboxyl linkers and their uses in specific conjugation of a cell-binding molecule” (SUZHOU M-CONJ BIOTECH CO., LTD., priority 2015, dated 2019).

Tests used:
[1] = system: HL-60, a human promyelocytic leukemia cell line; settings: read-out: IC50 (nM) HL60 cell (Ag+); MTT, 120 hours incubation
Method: (§1) The cell lines used in the cytotoxicity assays were HL-60, a human promyelocytic leukemia cell line; NCI-N87, a human gastric carcinoma cell line; BT-474, a human invasive ductal carcinoma cell line; and SKOV3, a human ovarian carcinoma cell line. For HL-60, NCI-N87, and BT-474 cells, the cells were grown in RPMI-1640 with 10% FBS. For SKOV3 cells, the cells were grown in McCoy's 5A Medium with 10% FBS. To run the assay, the cells (180 μl, 6000 cells) were added to each well in a 96-well plate and incubated for 24 hours at 37° C. with 5% CO2. Next, the cells were treated with test compounds (20 μl) at various concentrations in appropriate cell culture medium (total volume, 0.2 mL). The control wells contain cells and the medium but lack the test compounds. The plates were incubated for 120 hours at 37° C. with 5% CO2. MTT (5 mg/ml) was then added to the wells (20 μl) and the plates were incubated for 1.5 hr at 37° C. The medium was carefully removed and DMSO (180 μl) was added afterward. After it was shaken for 15 min, the absorbance was measured at 490 nm and 570 nm with a reference filter of 620 nm. The inhibition % was calculated according to the following equation: inhibition %=[1-(assay-blank)/(control-blank)]×100.

[2] = system: SKOV3, a human ovarian carcinoma cell line
Method: as §1

[3] = system: NCI-N87, a human gastric carcinoma cell line
Method: as §1

[4] = system: human gastric carcinoma N-87 cell line tumor xenograft; settings: one injection
Method: Five-week-old female BALB/c Nude mice (24 animals) were inoculated subcutaneously in the area under the right shoulder with N-87 carcinoma cells (5×10^6 cells/mouse) in 0.1 mL of serum-free medium. The tumors were grown for 8 days to an average size of 130 mm^3. The animals were then randomly divided into 4 groups (6 animals per group). The first group of mice served as the control group and was treated with the phosphate-buffered saline vehicle. […] Three dimensions of the tumor were measured every 4 days and the tumor volumes were calculated using the formula tumor volume=½ (length×width×height). The weight of the animals was also measured at the same time. A mouse was sacrificed when any one of the following criteria was met: (1) loss of body weight of more than 20% from pretreatment weight, (2) tumor volume larger than 1500 mm^3, (3) too sick to reach food and water, or (4) skin necrosis. A mouse was considered to be tumor-free if no tumor was palpable.

Question: Which results are given for T-DM1?
Answer: IC50 [1]: > 15 nM; Specificity for SK-OV-3 cell ([2]; IC50 HL60 / IC50 SK-OV-3): over 78; IC50 ([2]; read-out: IC50 (nM) SK-OV-3 cell (Ag+), MTT, 120 hours incubation): 0.191 nM; Specificity for N87 cell ([3]; IC50 HL60 / IC50 N87): over 55; IC50 ([3]; read-out: IC50 (nM) N87 cell (Ag+), MTT, 120 hours incubation): 0.27 nM; Animals with no tumor measurable ([4]; 5 mg/Kg intravenously, 6 animals per group): 2/6; Anti-tumor effect (FIG. 11) ([4]; 5 mg/kg, i.v.): did not completely eliminate the tumor; Duration of tumor growth inhibition ([4]; 5 mg/kg, i.v.): 44 days
